{"source": "patent US20150337351A1", "about": "“METHODS OF MICROORGANISM IMMOBILIZATION” (priority 2014, published 2015)", "key": {"[1]": {"test_system": "Pseudomonas aeruginosa IHMA 519749 (Paer)", "test": "Biosensor mixed species diffusion assay (immobilized cells, microscopic detection), growth of resistant strain", "assay_type": "cell-based", "conditions": "for Paer growth?: CAZ 16 (16 μg/mL), MHA 0.850% agar, 4 hours", "protocol": "(§1) A mixed species diffusion variation of Hodge test using a biosensor with immobilized cells and microscopic detection was performed using the same bacterial strains. Heavy suspensions of Ecol and Paer were prepared in L-histidine buffer from fresh overnight blood agar plates. Heavy suspensions were diluted in normal saline to produce 0.5 McFarland suspensions, noting the volumes of each suspension required and using the same volumes to produce 10^8 cfu/mL suspensions of each strain in L-histidine. These suspensions were further diluted to create […] and 2×10^5 cfu/mL suspensions for heavy and moderate density working samples. The working samples were then diluted 1:1 in 2 mM L-DOPA for EKC.\n(§2) The strains were next introduced to a biosensor for EKC, immobilization, and detection. Paer suspensions were loaded first, placing 5 uL in the exit port side (to maintain the resistant Paer isolate in one half of each channel) of each biosensor flowcell channel to cover one half of the flowcell. Six flowcells were loaded with each concentration. EKC was performed for 5 minutes at 1.5V, and then all flowcells were washed with two aliquots of 160 μL 1 mM L-DOPA (from the entry port). Ecol suspensions were next loaded, introducing 20 μL of cells suspension from the entry port to cover the full flowcell. Six flowcells were loaded with each concentration. EKC was performed for 5 minutes at 1.5V, and all flowcells washed with 160 μL of 1/10 MHB. The manner in which the cells were introduced and captures created a site comprising Ecol cells that were distal from any Paer cells (i.e., on the entry port side of the flowcell), as well as Ecol cells that were proximal to the Paer cells (i.e., on the exit port side of the flowcell).\n(§3) Antibiotic media were prepared for immobilization and inhibition testing as follows. […] An immobilization medium source plate was prepared in the detection system and maintained at 45° C. The source plate wells were loaded with 20 μL of the 10× stocks and MHB without antibiotic for growth controls. The sample cassette was placed in the detection system and maintained at 40° C. A 180 uL volume of 0.944% MHA was added to each well of the source plate and mixed, and 100 uL of pre-immobilization immobilizing medium (with an agar concentration of 0.850%) was withdrawn and introduced to a flowcell in accordance with the experimental design. The loaded biosensor was allowed to equilibrate for 5 minutes, and was then removed and cooled for 5 minutes to induce the agar immobilizing agent to change to solid phase. The flowcell ports were then sealed, and growth, imaging, and analysis were performed, with examination of each flowcell for growth of Paer, examination of the distal portion of each flowcell for growth of Ecol in the absence of Paer (distal sensitivity), and examination of the proximal portion of each flowcell for growth of Ecol in the presence of Paer (proximal resistance), indicative of a positive mixed species resistance due to diffusion of metallo-beta-lactamase.\n(§4) In order to test for enzyme-mediated cross-species resistance effects, a method for was devised to test a sensitive strain, Escherichia coli ATCC 25922 (Ecol), in the presence of a resistant strain, Pseudomonas aeruginosa IHMA 519749 (Paer) in the immobilized format. The method involved first immobilizing the resistant strain on the surface of a portion of each test flowcell of the cassette (approximately half) and then immobilizing the sensitive (sentinel) strain on the surface of the full flowcell including the area containing the resistant strain. This strategy provides an internal control for treatment effects on the sentinel strain in an area far from the resistant strain along with an area where close-field effects can be observed in the same flowcell. […]"}, "[2]": {"test_system": "E. coli 25922 (Ecol)", "test": "Plate-based disk diffusion tests, sensitive strain", "assay_type": "cell-based, Escherichia coli", "conditions": "blood agar lawn plates, antibiotic disk, overnight at 35° C.", "protocol": "(§5) Several nutrient agar plating methods employing antibiotics, other chemicals, and one or more species of bacteria have been devised to study these mechanisms. The most basic of these tests, the disk-diffusion method, employs a single test strain of bacteria which is used to create a uniform layer or lawn when grown. A disk-containing antibiotic is placed on the inoculated plate and the plate is then incubated to grow the lawn. In cases where the strain is sensitive to the antibiotic, a zone of no growth is observed around the disk. The distance from the disk to the edge of this zone is an indicator of the level of resistance to the antibiotic present in the disk, based on how far the antibiotic can diffuse into the nutrient medium. A variation on this test is to employ a second disk or drop of fluid near the antibiotic disk that contains a chemical that can affect the antibiotic response. Differences between the zone in areas near the chemical and away from the chemical can indicate the type of resistance mechanism at work in the test. In this case, the chelating agent ethylenediamine tetraacetic acid (EDTA) (Sigma-Aldrich) can be used to test for the presence of a class of antibiotic resistance enzyme called metallo-beta-lactamase, which is inhibited by EDTA. The positive result for this test is a larger zone of inhibition near the EDTA indicating reduced effectiveness of the enzyme. […]"}, "[3]": {"test_system": "Escherichia coli ATCC 25922 (Ecol)", "test": "Biosensor mixed species diffusion assay (immobilized cells, microscopic detection), growth of sentinel strain", "assay_type": "cell-based", "conditions": "for Mixed species resistance factor diffusion? / Ecol growth in distal site? / Ecol growth in proximal site?: CAZ 16 (16 μg/mL); for Ecol growth in distal site?: distal from Paer; for Ecol growth in proximal site?: proximal to Paer", "protocol": "as §1, §2, §3, §4"}, "[4]": {"test_system": "P. aeruginosa 519749 (Paer)", "test": "Plate-based disk diffusion tests, resistant strain", "assay_type": "cell-based, Pseudomonas aeruginosa", "conditions": "blood agar lawn plates, antibiotic disk, overnight at 35° C.", "protocol": "as §5"}, "[5]": {"conditions": "Flowcell 5, Ecol 10^6/Paer 10^6"}, "[6]": {"conditions": "Flowcell 6, Ecol 10^6/Paer 10^5"}, "[7]": {"conditions": "Flowcell 7, Ecol 10^5/Paer 10^6"}, "[8]": {"conditions": "Flowcell 8, Ecol 10^5/Paer 10^5"}, "[9]": {"conditions": "Flowcell 5, Ecol 10^6/Paer 10^6, 4 hours"}, "[10]": {"conditions": "Flowcell 6, Ecol 10^6/Paer 10^5, 4 hours"}, "[11]": {"conditions": "Flowcell 7, Ecol 10^5/Paer 10^6, 4 hours"}, "[12]": {"conditions": "Flowcell 8, Ecol 10^5/Paer 10^5, 4 hours"}}, "data": [{"smiles": "CC(C)(O/N=C(\\C(=O)N[C@@H]1C(=O)N2C(C(=O)[O-])=C(C[n+]3ccccc3)CS[C@H]12)c1csc(N)n1)C(=O)O", "note": "[CAZ, ceftazidime]", "values": [{"measurement": "Paer growth morphology and rate under antibiotic vs growth control", "setting": "[1]; CAZ at 16 μg/mL, immobilized in MHA, proximal site", "result": "same morphology and growth rate as the growth control condition"}, {"measurement": "Paer growth?", "setting": "[1]; [5]", "result": "Yes"}, {"measurement": "Paer growth?", "setting": "[1]; [6]", "result": "Yes"}, {"measurement": "Paer growth?", "setting": "[1]; [7]", "result": "Yes"}, {"measurement": "Paer growth?", "setting": "[1]; [8]", "result": "Yes"}, {"measurement": "Susceptibility of Ecol strain in plating-based tests", "setting": "[2]", "result": "sensitive"}, {"measurement": "Ecol growth and morphology under antibiotic (time-lapse images)", "setting": "[3]; CAZ at 16 μg/mL, immobilized in MHA, 4 hours", "result": "slight growth or elongation of the single cell with later fading and in many colonies complete lysis"}, {"measurement": "Mixed species resistance factor diffusion?", "setting": "[3]; [5]", "result": "No"}, {"measurement": "Ecol growth in distal site?", "setting": "[3]; [9]", "result": "No"}, {"measurement": "Ecol growth in proximal site?", "setting": "[3]; [9]", "result": "No"}, {"measurement": "Mixed species resistance factor diffusion?", "setting": "[3]; [6]", "result": "No"}, {"measurement": "Ecol growth in distal site?", "setting": "[3]; [10]", "result": "No"}, {"measurement": "Ecol growth in proximal site?", "setting": "[3]; [10]", "result": "No"}, {"measurement": "Mixed species resistance factor diffusion?", "setting": "[3]; [7]", "result": "No"}, {"measurement": "Ecol growth in distal site?", "setting": "[3]; [11]", "result": "No"}, {"measurement": "Ecol growth in proximal site?", "setting": "[3]; [11]", "result": "No"}, {"measurement": "Mixed species resistance factor diffusion?", "setting": "[3]; [8]", "result": "No"}, {"measurement": "Ecol growth in distal site?", "setting": "[3]; [12]", "result": "No"}, {"measurement": "Ecol growth in proximal site?", "setting": "[3]; [12]", "result": "No"}, {"measurement": "Resistance of Paer isolate in plating-based tests", "setting": "[4]", "result": "high resistance"}, {"measurement": "Zone of inhibition, Paer isolate", "setting": "[4]", "result": "no zone of inhibition observed"}]}]}
